What is called IC50 is the concentration that inhibits the measured activity by half.

Like-named read-outs stand apart in the source and are kept apart here.

Consider 13 molecules from US20240043448A1, “Small Molecule Inhibitors of KRAS G12C Mutant” (Merck Sharp & Dohme LLC, priority 2019, published 2024).

The subject of experiment [1] is phospho-ERK. The experiment can be described thus: Cellular phospho-ERK assay. It is filed as cell-based. Conditions: NCI-H358 cells, 2 hour incubation, ratio of p-Erk vs total Erk, read-out: IC50 (nM) pERK (Cell). The procedure: NCI-H358 cells (ATCC® CRL-5807™) were cultured in T150 flask in growth medium (RPMI medium 1640-GlutaMAX™-I (ThermoFisher Scientific 61870) containing 10% fetal bovine serum (ThermoFisher Scientific 10091148)). The cells were harvested in growth medium after TrypLE (ThermoFisher scientific 12604021) digestion and were seeded in a 384-well collagen coated cell culture plate (Corning 356702) at a density of 15,000 cells/well, and incubated at 37° C., 5% CO2 overnight. The compound dose-response titrations were prepared and appropriate amounts of compounds were dispensed in a 384-well intermediate plate using an Echo 550 liquid handler. RPMI medium 1640-GlutaMAX™-I were added to the intermediate plate and transferred to 384-well cell culture plate, which was incubated at 37° C., 5% CO2 for 2 hours. After removal of medium from the plate, cells were lysed in lysis buffer from Alpha SureFire® Ultra™ Multiplex p-Erk and total Erk assay kit (PerkinElmer MPSU-PTERK) containing Halt™ Protease and Phosphotase inhibitor cocktail (ThermoFisher Scientific 78446) at room temperature with constant shaking at 300 rpm for 30 minutes. The cell lysates were then transferred to OptiPlate-384 plate (PerkinElmer 6005620) and the phosphorylation of Erk and total Erk levels were detected by Alpha SureFire Ultra Multiplex p-Erk kit (PerkinElmer MPSU-PTERK) following the manufacturer's protocol. Assay plates were read on an EnVision Multimode Plate Reader (PerkinElmer), and the ratio of p-Erk vs total Erk in each well was used as the final readout. Dose response curves were analyzed using a 4-parameter logistic model to calculate IC50 values using spotfire software.

In experiment [2] the target is Biotinylated KRAS G12C protein (Homo sapiens (Human), UniProt P01116, C118S/C51S/C80L/G12C). Description: SOS-catalyzed nucleotide exchange assay (TR-FRET). The settings on record: in vitro apparent potency; preincubation time of 60 minutes prior to addition of SOS. It is filed as biochemical. The procedure: The SOS-catalyzed nucleotide exchange assay utilizes a preformed complex of recombinant biotinylated KRAS protein containing G12C/C51S/C80L/C118S mutations (183 amino acids; biotin on K10; leader sequence which is an AviTag; referred to as SEQ ID NO: 1 or “Biotinylated KRAS G12C protein” hereafter), Bodipy-GDP, and Terbium-streptavidin. Compounds are added to this complex and then after incubation for 60 minutes, the mixture is treated with recombinant SOS protein and unlabeled GTP. Small molecule inhibitors stabilize the Bodipy-GDP complex whereas the untreated protein rapidly exchanges Bodipy-GDP for unlabeled GTP resulting in reduced TR-FRET signal.
Sequence of Biotinylated KRAS G12C protein (P01116 other isoform, or with tags, fused parts or gaps, stated change not applied): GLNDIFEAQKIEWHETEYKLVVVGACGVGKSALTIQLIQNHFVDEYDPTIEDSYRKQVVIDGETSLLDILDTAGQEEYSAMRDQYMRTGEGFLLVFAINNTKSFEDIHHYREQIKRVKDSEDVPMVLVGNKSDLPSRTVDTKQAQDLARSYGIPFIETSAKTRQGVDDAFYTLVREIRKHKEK
Biotinylated KRAS G12C protein (SEQ ID NO: 1) is diluted to 2 μM in an EDTA buffer (20 mM HEPES, 150 mM sodium chloride, 10 mM EDTA, and 0.01% Tween) and incubated at room temperature for one hour. This mixture is then further diluted to 90 nM in an assay buffer (20 mM HEPES, 150 mM sodium chloride, 10 mM magnesium chloride, and 0.005% Tween) containing 15 nM of Terbium-Streptavidin (Invitrogen, catalog #PV3577) and 900 nM of Bodipy-GDP and incubated at room temperature for six hours. This solution is referred to as Biotinylated KRAS G12C mixture.
Each test compound (10 mM stock in DMSO) is diluted in DMSO to make a 10-point, 3-fold dilution series in a 384-well low dead volume microplate (Labcyte, catalog #LP-0200). Once titrations are made, 10 nL of the diluted compounds is acoustically dispensed into a 384-well plate (Corning, catalog #3820) using an Echo 550 (Labcyte).
Each well of the plate receives 3 μL Biotinylated KRAS G12C mixture that had been incubating for six hours and 3 μL of assay buffer using a BioRAPTR (Beckman Coulter) and is incubated at room temperature for 60 minutes. Each well then receives 3 μL of 240 nM recombinant human SOS protein and 9 mM GTP (Sigma, G8877) in assay buffer and is incubated at room temperature for 60 minutes.
The time-resolved fluorescence resonance energy transfer signal of the plate is measured on an Envision (PerkinElmer) plate reader: Excitation filter=340 nm; emission1=495 nm; emission2=520 nm; dichroic mirror=D400/D505; delay time=100 μs. The signal of each well is determined as the ratio of the emission at 520 nm to that at 495 nm. Percent effect of each well is determined after normalization to control wells containing DMSO (no effect) or a saturating concentration of inhibitor (max effect). The apparent effect as a function of compound concentration is fit to a four parameter logistic equation.
A general note: Time-resolved FRET reads energy transfer from a long-lived donor to a nearby acceptor.

On to `C=CC(=O)N1CCN(c2nc(=O)n3c4nc(c(F)cc24)-c2c(F)cccc2OCCCOc2ccnc(C(C)C)c2-3)[C@@H](C)C1` [Example 1a, 18,21-difluoro-2-[(2S)-2-methyl-4-(prop-2-enoyl)piperazin-1-yl]-6-(propan-2-yl)-12,13-dihydro-4H,11H-1,19-ethenopyrido[4,3-f]pyrimido[1,6-h][1,5,8,10]benzodioxadiazacyclotridecin-4-one], for which the IC50 in experiment [1] amounted to 21 nM; in experiment [2] it was 11 nM.

Take `C=CC(=O)N1CCN(c2nc(=O)n3c4nc(c(F)cc24)-c2cccc4cnn(c24)CCCOc2ccnc(C(C)C)c2-3)[C@@H](C)C1` [Example 3a, 22-fluoro-2-[(2S)-2-methyl-4-(prop-2-enoyl)piperazin-1-yl]-6-(propan-2-yl)-12,13-dihydro-4H,11H-1,20-ethenopyrido[4′,3′:2,3]pyrimido[1′,6′:4,5][1,4,6,10]oxatriazacyclotridecino[8,9,10-hi]indazol-4-one]: the results for the IC50 in experiment [1] and in experiment [2] were 19100 nM and 4420 nM, respectively.

As to `C=CC(=O)N1CCN(c2nc(=O)n3c4nc(c(F)cc24)-c2cccc4cnn(c24)CCCOc2ccnc(C(C)C)c2-3)[C@H](C)C1` [Example 3b, 22-fluoro-2-[(2S)-2-methyl-4-(prop-2-enoyl)piperazin-1-yl]-6-(propan-2-yl)-12,13-dihydro-4H,11H-1,20-ethenopyrido[4′,3′:2,3]pyrimido[1′,6′:4,5][1,4,6,10]oxatriazacyclotridecino[8,9,10-hi]indazol-4-one], the IC50 came out at 93 nM in experiment [1] and 15 nM in experiment [2].

With `C=CC(=O)N1CCN(c2nc(=O)n3c4nc(c(F)cc24)-c2c(F)cccc2OCCCCc2ccnc(C(C)C)c2-3)[C@H](C)C1` [Example 4b, 18,21-Difluoro-2-[(2S)-2-methyl-4-(prop-2-enoyl)piperazin-1-yl]-6-(propan-2-yl)-10,11,12,13-tetrahydro-4H-1,19-ethenopyrido[4,3-f]pyrimido[1,6-h][1,8,10]benzoxadiazacyclotridecin-4-one], the IC50 amounted to 1160 nM in experiment [1] and 6890 nM in experiment [2].

As for `C=CC(=O)N1CCN(c2nc(=O)n3c4nc(c(F)cc24)-c2ccnn2CCCCc2ccnc(C(C)C)c2-3)[C@@H](C)C1` [Example 5, 20-fluoro-2-[(2S)-2-methyl-4-(prop-2-enoyl)piperazin-1-yl]-6-(propan-2-yl)-10,11,12,13-tetrahydro-4H-1,18-(ethanediylidene)-pyrazolo[5,1-e]pyrido-[4,3-k]pyrimido[1,6-a]-[1,3,6]triazacyclododecin-4-one], the IC50 amounted to 4440 nM in experiment [1] (Homo sapiens, NCI-H358, 2 h) and 898 nM in experiment [2].

In the case of `C=CC(=O)N1CCN(c2nc(=O)n3c4nc(c(F)cc24)-c2cccc4cnn(c24)CCCCc2ccnc(C(C)C)c2-3)[C@@H](C)C1` [Example 6, 22-fluoro-2-[(2S)-2-methyl-4-(prop-2-enoyl)piperazin-1-yl]-6-(propan-2-yl)-10,11,12,13-tetrahydro-4H-1,20-(ethanediylidene)-pyrido[4′,3′:12,13]pyrimido-[1′,6′:1,2][1,3,7]triazacyclo-tridecino[5,6,7-hi]indazol-4-one], the IC50 turned out to be 45 nM in experiment [1] (Homo sapiens, NCI-H358, 2 h) and 9.2 nM in experiment [2].

On to `C=CC(=O)N1[C@H](C)CN(c2nc(=O)n3c4nc(c(F)cc24)-c2c(F)cccc2OCCCCc2ccnc(C(C)C)c2-3)C[C@@H]1C` [Example 7, 2-[(3R,5S)-3,5-dimethyl-4-(prop-2-enoyl)piperazin-1-yl]-18,21-difluoro-6-(propan-2-yl)-10,11,12,13-tetrahydro-4H-1,19-ethenopyrido[4,3-f]pyrimido[1,6-h][1,8,10]benzoxadiazacyclotridecin-4-one], for which the IC50 worked out at 34 nM in experiment [1] and 6.9 nM in experiment [2].

With `C=CC(=O)N1C[C@H](C)N(c2nc(=O)n3c4nc(c(F)cc24)-c2c(F)cccc2OCCCCc2ccnc(C(C)C)c2-3)C[C@H]1C` [Example 8, 2-[(2S,5R)-2,5-dimethyl-4-(prop-2-enoyl)piperazin-1-yl]-18,21-difluoro-6-(propan-2-yl)-10,11,12,13-tetrahydro-4H-1,19-ethenopyrido[4,3-f]-pyrimido[1,6-h][1,8,10]ben-zoxadiazacyclotridecin-4-one], the IC50 in experiment [1] (Homo sapiens, NCI-H358, 2 h) stood at 2.2 nM; in experiment [2] it was 3.5 nM.

On to `C=CC(=O)N1CCN(c2nc(=O)n3c4nc(c(Cl)cc24)-c2c(F)cccc2OCCc2ccccc2-3)[C@@H](C)C1` [Example 9, 19-chloro-16-fluoro-2-[(2S)-2-methyl-4-(prop-2-enoyl)piperazin-1-yl]-10,11-dihydro-4H-1,17-ethenodibenzo[b,h]pyrimido[6,1-f][1,5,7]oxadiazacycloundecin-4-one], for which the IC50 in experiment [1] was found to be 3830 nM; in experiment [2], 1410 nM.

As for `C=CC(=O)N1CCN(c2nc(=O)n3c4nc(c(F)cc24)-c2c(F)cccc2OCCCCc2cnc(C(C)C)c-3c2)[C@H](C)C1` [Example 16b, 19,22-difluoro-2-[(2S)-2-methyl-4-(prop-2-enoyl)piperazin-1-yl]-7-(propan-2-yl)-11,12,13,14-tetrahydro-4H-1,20-(ethanediylidene)-6,10-(metheno)pyrimido[1,6-k][1,8,11,13]benzoxatriazacyclohexadecin-4-one], the values for the IC50 in experiment [1] and in experiment [2] were 109 nM and 10 nM, respectively.

`C=CC(=O)N1CCN(c2nc(=O)n3c4nc(c(F)cc24)-c2c(F)cccc2CCOCCc2ccnc(C(C)C)c2-3)[C@@H](C)C1` [Example 17a, 18,21-difluoro-2-[(2S)-2-methyl-4-(prop-2-enoyl)piperazin-1-yl]-6-(propan-2-yl)-10,11,13,14-tetrahydro-4H-1,19-ethenopyrido[3,4-e]pyrimido[6,1-c][9,2,4]benzoxadiazacyclotridecin-4-one]: the IC50 in experiment [1] stood at 66 nM; in experiment [2], 11 nM.

As for `C=CC(=O)N1CCN(c2nc(=O)n3c4nc(c(F)cc24)-c2c(F)cccc2CCOCCc2ccnc(C(C)C)c2-3)[C@H](C)C1` [Example 17b, 18,21-difluoro-2-[(2S)-2-methyl-4-(prop-2-enoyl)piperazin-1-yl]-6-(propan-2-yl)-10,11,13,14-tetrahydro-4H-1,19-ethenopyrido[3,4-e]pyrimido[6,1-c][9,2,4]benzoxadiazacyclotridecin-4-one], the IC50 in experiment [1] amounted to 1180 nM; in experiment [2] it was 370 nM.

For `C=CC(=O)N1CCN(c2nc(=O)n3c4nc(c(F)cc24)-c2c(F)cccc2COCCc2ccnc(C(C)C)c2-3)[C@@H](C)C1` [Example 18a, 17,20-difluoro-2-[(2S)-2-methyl-4-(prop-2-enoyl)piperazin-1-yl]-6-(propan-2-yl)-10,11-dihydro-1,18-ethenopyrido[3,4-e]pyrimido[6,1-c][9,2,4]benzoxadiazacyclododecin-4(13H)-one], the IC50 in experiment [1] was 35 nM; in experiment [2] it was 10 nM.
